# In ChEMBL document CHEMBL2321716, “Exploring a new frontier in cancer treatment: targeting the ubiquitin and ubiquitin-like activating enzymes” (J Med Chem, 2013):
# Legend:
# [1] = Inhibition of N-terminal GST-tagged human UAE-catalyzed UAE-Ub thioester intermediate formation expressed in HI5 insect cells after 5 mins by SDS-PAGE analysis
# [2] = Inhibition of N-terminal GST-tagged human UAE-catalyzed [32P]-AMP:[a-32P]-ATP exchange expressed in HI5 insect cells by TLC analysis
# [3] = Inhibition of human UAE-catalyzed E1-E2 transthiolation reaction expressed in Sf9 insect cells after 90 mins by TR-FRET assay
# [4] = Inhibition of UAE (unknown origin) in presence of ATP; design: species or system Homo sapiens
# [5] = target: T1, SUMO-activating enzyme subunit 1 (Homo sapiens, UniProt Q9UBE0); test: Inhibition of SAE (unknown origin) in presence of ATP
# T1 sequence (Q9UBE0 whole entry): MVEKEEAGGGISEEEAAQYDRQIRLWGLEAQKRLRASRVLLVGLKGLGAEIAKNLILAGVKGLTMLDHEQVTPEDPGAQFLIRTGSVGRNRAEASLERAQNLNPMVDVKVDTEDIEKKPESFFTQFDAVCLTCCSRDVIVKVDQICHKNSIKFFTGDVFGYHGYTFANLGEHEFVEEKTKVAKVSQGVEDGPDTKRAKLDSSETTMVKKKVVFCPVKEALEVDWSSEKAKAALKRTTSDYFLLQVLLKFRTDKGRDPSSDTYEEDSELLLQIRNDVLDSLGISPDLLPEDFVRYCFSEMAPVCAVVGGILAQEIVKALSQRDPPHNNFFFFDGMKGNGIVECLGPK
# [6] = Competitive inhibition of human UAE-catalyzed ATP-PPi exchange reaction expressed in Sf9 insect cells after 60 mins in presence of 10 uM ATP
# [7] = Competitive inhibition of human UAE-catalyzed ATP-PPi exchange reaction expressed in Sf9 insect cells after 60 mins in presence of 1 mM ATP
# [8] = target: T2, Ubiquitin-like modifier-activating enzyme 6 (Homo sapiens, UniProt A0AVT1); test: Inhibition of UBA6 (unknown origin) in presence of ATP
# T2 sequence (A0AVT1 whole entry): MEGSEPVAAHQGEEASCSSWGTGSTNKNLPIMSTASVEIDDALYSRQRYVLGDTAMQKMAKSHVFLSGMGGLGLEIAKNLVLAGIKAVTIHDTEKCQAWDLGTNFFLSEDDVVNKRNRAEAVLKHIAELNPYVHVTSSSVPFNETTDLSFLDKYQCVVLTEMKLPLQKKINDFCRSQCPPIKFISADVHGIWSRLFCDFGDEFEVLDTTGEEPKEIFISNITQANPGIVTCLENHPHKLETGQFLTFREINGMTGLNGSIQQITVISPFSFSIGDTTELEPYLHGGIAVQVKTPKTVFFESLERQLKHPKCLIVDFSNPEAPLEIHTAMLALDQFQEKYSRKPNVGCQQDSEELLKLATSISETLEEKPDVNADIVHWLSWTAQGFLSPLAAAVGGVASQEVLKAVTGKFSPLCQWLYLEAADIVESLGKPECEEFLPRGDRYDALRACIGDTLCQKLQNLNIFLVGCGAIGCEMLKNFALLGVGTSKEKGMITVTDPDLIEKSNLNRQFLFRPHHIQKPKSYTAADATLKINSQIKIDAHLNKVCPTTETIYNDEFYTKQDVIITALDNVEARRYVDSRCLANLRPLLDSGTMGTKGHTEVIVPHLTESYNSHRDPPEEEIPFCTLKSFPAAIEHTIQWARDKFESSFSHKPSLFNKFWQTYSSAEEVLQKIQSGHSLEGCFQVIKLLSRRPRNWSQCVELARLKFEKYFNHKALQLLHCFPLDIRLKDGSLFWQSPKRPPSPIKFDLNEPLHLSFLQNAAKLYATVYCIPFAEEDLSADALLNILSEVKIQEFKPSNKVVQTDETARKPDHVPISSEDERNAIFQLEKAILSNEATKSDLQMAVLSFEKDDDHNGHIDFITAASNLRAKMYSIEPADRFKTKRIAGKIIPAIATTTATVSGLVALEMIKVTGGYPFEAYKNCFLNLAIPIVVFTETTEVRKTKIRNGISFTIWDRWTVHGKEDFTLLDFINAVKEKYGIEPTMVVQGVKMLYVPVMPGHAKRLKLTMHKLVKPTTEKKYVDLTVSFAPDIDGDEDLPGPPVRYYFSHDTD
# [9] = target: T3, Ubiquitin-like modifier-activating enzyme ATG7 (Homo sapiens, UniProt O95352); test: Inhibition of ATG7 (unknown origin) in presence of ATP
# T3 sequence (O95352 whole entry): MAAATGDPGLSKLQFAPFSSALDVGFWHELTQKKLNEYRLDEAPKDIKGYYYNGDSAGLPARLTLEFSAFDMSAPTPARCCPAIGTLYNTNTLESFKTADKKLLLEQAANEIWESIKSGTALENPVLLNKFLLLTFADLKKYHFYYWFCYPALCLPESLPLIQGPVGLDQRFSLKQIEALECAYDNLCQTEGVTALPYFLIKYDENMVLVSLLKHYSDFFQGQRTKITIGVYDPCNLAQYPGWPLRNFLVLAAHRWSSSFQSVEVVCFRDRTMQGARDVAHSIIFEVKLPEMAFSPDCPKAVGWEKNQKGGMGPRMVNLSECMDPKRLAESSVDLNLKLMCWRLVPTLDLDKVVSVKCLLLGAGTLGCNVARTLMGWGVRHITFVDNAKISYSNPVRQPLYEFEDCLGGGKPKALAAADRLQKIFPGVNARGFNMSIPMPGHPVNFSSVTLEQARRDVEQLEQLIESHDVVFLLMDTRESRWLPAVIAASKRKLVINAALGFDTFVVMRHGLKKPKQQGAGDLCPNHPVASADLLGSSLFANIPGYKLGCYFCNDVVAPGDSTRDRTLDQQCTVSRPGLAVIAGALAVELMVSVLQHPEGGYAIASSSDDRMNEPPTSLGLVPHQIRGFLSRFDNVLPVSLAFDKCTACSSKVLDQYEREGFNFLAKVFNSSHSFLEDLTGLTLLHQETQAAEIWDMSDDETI
# [10] = target: T4, Ubiquitin-like modifier-activating enzyme 7 (Homo sapiens, UniProt P41226); test: Inhibition of UBA7 (unknown origin) in presence of ATP
# T4 sequence (P41226 whole entry): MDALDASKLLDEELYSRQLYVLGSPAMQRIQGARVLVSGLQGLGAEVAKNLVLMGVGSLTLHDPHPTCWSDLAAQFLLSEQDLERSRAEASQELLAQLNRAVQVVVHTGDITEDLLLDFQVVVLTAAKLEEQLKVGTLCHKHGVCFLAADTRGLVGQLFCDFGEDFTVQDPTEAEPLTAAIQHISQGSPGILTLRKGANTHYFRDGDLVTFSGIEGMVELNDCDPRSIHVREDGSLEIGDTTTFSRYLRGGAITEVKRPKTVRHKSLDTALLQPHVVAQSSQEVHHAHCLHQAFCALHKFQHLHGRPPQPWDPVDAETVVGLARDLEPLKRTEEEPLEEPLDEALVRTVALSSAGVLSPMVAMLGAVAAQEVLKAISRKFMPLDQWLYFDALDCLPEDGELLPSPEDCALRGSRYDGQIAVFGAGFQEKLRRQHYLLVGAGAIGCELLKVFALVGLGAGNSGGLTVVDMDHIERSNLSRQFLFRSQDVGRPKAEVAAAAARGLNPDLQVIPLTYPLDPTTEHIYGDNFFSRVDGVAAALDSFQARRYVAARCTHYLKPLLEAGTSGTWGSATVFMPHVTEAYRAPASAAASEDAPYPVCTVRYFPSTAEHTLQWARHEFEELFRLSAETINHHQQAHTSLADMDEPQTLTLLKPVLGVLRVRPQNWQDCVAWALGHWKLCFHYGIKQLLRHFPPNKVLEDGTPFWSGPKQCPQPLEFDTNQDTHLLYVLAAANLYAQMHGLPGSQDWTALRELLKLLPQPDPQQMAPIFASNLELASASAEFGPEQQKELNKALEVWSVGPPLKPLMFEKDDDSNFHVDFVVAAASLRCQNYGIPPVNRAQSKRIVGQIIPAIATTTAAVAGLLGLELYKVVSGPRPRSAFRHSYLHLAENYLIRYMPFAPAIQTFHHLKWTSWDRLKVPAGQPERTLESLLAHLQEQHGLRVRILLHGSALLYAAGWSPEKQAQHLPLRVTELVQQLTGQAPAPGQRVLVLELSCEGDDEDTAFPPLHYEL
# [11] = target: T5, NEDD8-activating enzyme E1 regulatory subunit (Homo sapiens, UniProt Q13564); test: Inhibition of NAE (unknown origin) assessed as decrease in NEDD8-Ubcl2 formation
# T5 sequence (Q13564 whole entry): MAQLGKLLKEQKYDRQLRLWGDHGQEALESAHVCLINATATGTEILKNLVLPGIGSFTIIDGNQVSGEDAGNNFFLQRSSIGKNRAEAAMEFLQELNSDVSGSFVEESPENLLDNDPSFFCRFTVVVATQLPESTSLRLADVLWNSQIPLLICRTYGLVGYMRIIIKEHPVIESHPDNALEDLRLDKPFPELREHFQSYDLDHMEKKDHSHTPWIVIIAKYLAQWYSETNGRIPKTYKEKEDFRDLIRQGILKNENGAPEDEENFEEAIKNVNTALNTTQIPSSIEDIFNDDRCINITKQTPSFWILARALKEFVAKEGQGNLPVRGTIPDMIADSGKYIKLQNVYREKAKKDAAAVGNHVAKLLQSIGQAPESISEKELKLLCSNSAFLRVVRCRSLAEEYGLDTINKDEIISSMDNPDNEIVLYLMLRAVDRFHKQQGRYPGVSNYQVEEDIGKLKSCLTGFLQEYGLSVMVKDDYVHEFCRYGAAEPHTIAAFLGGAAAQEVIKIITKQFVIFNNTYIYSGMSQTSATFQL
# [12] = target: T6, NEDD8-activating enzyme E1 catalytic subunit (Homo sapiens, UniProt Q8TBC4); test: Inhibition of NAE (unknown origin)-catalyzed transthiolation of NEDD8 from NAE to Ubc12
# T6 sequence (Q8TBC4 whole entry): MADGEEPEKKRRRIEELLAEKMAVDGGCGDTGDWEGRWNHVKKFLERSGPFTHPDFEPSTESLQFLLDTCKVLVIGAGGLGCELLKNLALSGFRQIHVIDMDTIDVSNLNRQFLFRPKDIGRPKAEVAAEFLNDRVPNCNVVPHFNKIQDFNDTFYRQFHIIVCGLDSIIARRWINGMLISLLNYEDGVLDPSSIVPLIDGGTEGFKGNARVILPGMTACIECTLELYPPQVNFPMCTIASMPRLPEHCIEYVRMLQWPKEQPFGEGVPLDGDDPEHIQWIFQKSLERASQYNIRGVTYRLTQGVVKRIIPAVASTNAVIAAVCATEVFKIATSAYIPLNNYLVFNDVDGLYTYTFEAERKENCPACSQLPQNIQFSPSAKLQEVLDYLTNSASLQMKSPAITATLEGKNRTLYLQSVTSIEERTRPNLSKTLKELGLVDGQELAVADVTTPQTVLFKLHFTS
# [13] = target: T6, NEDD8-activating enzyme E1 catalytic subunit; test: Inhibition of NAE (unknown origin)-catalyzed NEDD8-Ubcl2 intermediate formation by densitometric analysis
# [14] = system: Caco-2; test: Cytotoxicity against human Caco2 cells by MTT assay; type: functional, cell-based
# [15] = Inhibition of recombinant yeast UAE-catalyzed UAE-Ub intermediate formation after 15 mins by densitometric analysis; design: species or system Saccharomyces cerevisiae
# [16] = system: MCF7; test: Cytotoxicity against human MCF7 cells after 48 hrs by WST8 assay; type: functional, cell-based; conditions: MCF7, 48 h
# [17] = Inhibition of UAE-catalyzed UAE-Ub thioester intermediate formation in human RPE cells by immunoblotting analysis; type: cell-based
# [18] = target: T1, SUMO-activating enzyme subunit 1; test: Inhibition of recombinant SAE1(unknown origin)-mediated SUMOylation of RanGAP1-C2
# [19] = Inhibition of FLAG-tagged human recombinant UAE-catalyzed UAE-Ub thioester intermediate formation immunoblotting analysis
# [20] = target: T1, SUMO-activating enzyme subunit 1; test: Inhibition of recombinant His-tagged SAE1(unknown origin)-mediated SUMOylation of RanGAP1-C2 by immunoblotting analysis
# [21] = target: T1, SUMO-activating enzyme subunit 1; test: Inhibition of human SAE by fluorescence assay
# [22] = Inhibition of N-terminal GST-tagged human UAE-catalyzed UAE-Ub thioester intermediate formation expressed in HI5 insect cells after 15 mins by SDS-PAGE analysis
structure (smiles),measurement,setting,value
CCCCCCCCCCNCCSSCc1ccc(Cl)cc1,IC50,[1],9 µM
same,IC50,[2],13 µM
NS(=O)(=O)OC[C@H]1O[C@@H](n2cnc3c(N[C@H]4CCc5ccccc54)ncnc32)[C@H](O)[C@@H]1O,IC50,[3],0.0014 µM
same,IC50,[4],5.2 µM
same,IC50,[5],6.4 µM
same,IC50,[6],0.0102 µM
same,IC50,[7],5 µM
same,IC50,[8],0.92 µM
same,IC50,[9],> 100 µM
same,IC50,[10],4 µM
O=c1cc(-c2ccc(O)cc2)oc2cc(O)c(-c3c(O)cc4oc(-c5ccc(O)cc5)cc(=O)c4c3O)c(O)c12,IC50,[11],5 µM
same,IC50,[12],20 µM
O=C(O)CNC(=O)CNC(=O)COc1ccc2nc3n(c(=O)c2c1)CCC3,IC50,[13],0.8 µM
same,IC50,[14],10 µM
C/C=C/[C@]12C(=O)[C@H]3O[C@H]3[C@H](O)[C@H]1[C@H]1C(=C[C@@H]2C)C(=O)[C@H]2O[C@H]2[C@@H]1O,IC50,[15],9.4 µM
same,IC50,[16],5.4 µM
CCCC/C=C/[C@]12C(=O)[C@H]3O[C@H]3[C@H](O)[C@H]1[C@H]1C(=C[C@@H]2CCCC)C(=O)[C@H]2O[C@H]2[C@@H]1O,IC50,[15],3.5 µM
same,IC50,[16],1 µM
CCCCCCCC/C=C/[C@]12C(=O)[C@H]3O[C@H]3[C@H](O)[C@H]1[C@H]1C(=C[C@@H]2CCCCCCCC)C(=O)[C@H]2O[C@H]2[C@@H]1O,IC50,[15],90 µM
same,IC50,[16],3.6 µM
CCOC(=O)N1CCN(/[N+]([O-])=N/Oc2ccc([N+](=O)[O-])cc2[N+](=O)[O-])CC1,IC50,[17],2 µM
CCCCCCCCCCCCCCCc1cccc(O)c1C(=O)O [ANACARDIC ACID],IC50,[18],2.2 µM
CCCCCC/C=C\CCCCCCCc1cccc(O)c1C(=O)O [GINGKOLIC ACID],IC50,[18],3 µM
C[C@@H](CC(=O)NC(=O)c1coc(/C=C/CCCCCCCCC(=O)O)cc1=O)C(=O)O [HIMEIC ACID A],IC50,[19],50 µM
C[C@@H]1O[C@@H](O[C@H]2[C@H](O)C[C@H](c3ccc4c(c3O)C(=O)C3=C(C4=O)[C@@]4(O[C@H]5CC[C@H](O)[C@H](C)O5)C(=O)C[C@](C)(O)C[C@@]4(O)C=C3)O[C@@H]2C)CC[C@@H]1O[C@H]1C[C@@H](O)[C@H](O)[C@@H](C)O1 [KERRIAMYCIN B],IC50,[20],11.7 µM
CCCCCCCC(=O)SCC/C=C/[C@@H]1CC(=O)NCc2nc(cs2)C2=N[C@@](C)(CS2)C(=O)N[C@@H](C(C)C)C(=O)O1 [LARGAZOLE],IC50,[21],450 µM
same,IC50,[22],29 µM
